# Reference: patent US20210008070A1, “TARGETING MINIMAL RESIDUAL DISEASE IN CANCER WITH CD36 ANTAGONISTS” (VIB VZW, priority 2018, published 2021)
# Tests used:
# [1] = test system: MM52 cells; assay: Colony assay / Cell Titer Glo in short-term melanoma culture MM52; assay type: cell-based, human
# Procedure: D) Colony assay performed over 7 days.
# E) and Cell Titer Glo assay performed after 6 days after incubation of the short culture melanoma line MM052 with MEK inhibitor trametinib (TRA; […]; 1 uM), FAK inhibitor PF-562271 (1 uM) and RXRG antagonist HX531 (2 uM)
# Cells were grown to near confluency on 12well plates and treated with the indicated drug combinations for the indicated time period. Cells were washed once with PBS, stained with crystal violet (1% crystal violet w/v, 35% methanol v/v) for 15 min, washed with PBS and destained in tap water.
# 1.15. Cell Titer Glo 2500 cells were plated onto a 96 well plate and treated with the indicated drug combinations for the indicated time period. Cell Titer Glo assay was performed according to the manufacturer's instruction (Promega) and luminescence was measured on a VictorX3 (Perkin Elmer).
# [2] = test system: GFRA2-positive MEL006 cells; assay: FACS of GFRA2-positive cells in MEL006 cultures
# Procedure: Cells were resuspended in FACS sorting buffer (culture medium supplied with 1% EDTA 100 mM).
# [3] = test system: RAR receptors; conditions: cited from earlier work
smiles,measurement,setting,value
CN1c2ccc([N+](=O)[O-])cc2N=C(c2ccc(C(=O)O)cc2)c2cc3c(cc21)C(C)(C)CCC3(C)C [HX531],sensitivity of MM52 cells to trametinib,[1]; HX531 plus trametinib,sensitized these cells to trametinib
same,drug-dependent induction of GFRA2-positive cells,[2]; with IC50 concentrations of BRAF and MEK-inhibitors,completely inhibited emergence
CN(c1ncccc1CNc1nc(Nc2ccc3c(c2)CC(=O)N3)ncc1C(F)(F)F)S(C)(=O)=O [PF-562271],drug-dependent emergence of the GFRA2-high cell population,[2]; added to DT,diminished the drug-dependent emergence of the GFRA2-high cell population in a dose-dependent manner
C=C(c1ccc(C(=O)O)cc1)c1cc2c(cc1C)C(C)(C)CCC2(C)C [bexarotene],long-term growth inhibition,[1]; alone,did not induce measurable long-term growth inhibition
same,sensitivity to a combination of trametinib/FAK-inhibitors,[1]; bexarotene added,increased the sensitivity
same,sensitivity of MM52 cells to trametinib,[1]; bexarotene at concentrations as low as 10 nM,significantly decreased the sensitivity
same,cells with cell death,"[1]; bexarotene with trametinib/FAK-inhibitors, after 3 days of treatment",~100%
CC1(C)CCC(C)(C)c2cc(C3(c4ccc(C(=O)O)cc4)OCCO3)ccc21 [SR 11237],RAR activity,[3],devoid of any RAR activity
